Columns and labels:
[1] = tested on: primary embryonic hippocampal cultures; assay: VitE complementation (vitE depletion) test on primary neuronal cultures; type: cell-based, rats; details: for rescue of survival of vitE depleted cultures: 10^-7 M and 10^-6 M
Description: Primary embryonic hippocampal cultures were prepared essentially as described previously (Pauwels et al., Van Aschouw, H. P., Peeters, L., Moeremans, M., Leysen, J. E. (1992) Chronic treatment with sabeluzole protects cultured rat brain neurons from the neurotoxic effects of excitatory amino acids. Synapse, 12:271-280). Hippocampal formations of rats at embryonic day 17 were dissected and dissociated in 0.05% trypsin, 0.1 mg/ml DNase I in DMEM (Dulbecco Modified Eagle Medium). Heat-inactivated horse serum (HS) was added to a concentration of 4%, and the cells were centrifuged, washed with DMEM, and resuspended in DMEM/Ham's F12 (3:1) containing 10% HS. The cells were plated at a density of 4×10^5 cells/cm^2 in poly L-lysine (0.001%) precoated multiwell-24 plates. On day 1 in culture, the medium was changed to chemically defined CDM-R12 medium (DMEM-HEPES/Ham's F12 (3:1) containing 0.26% bovine serum albumin, 30 nM sodium selenite, 3 nM 3,3',5 triiodo-L-thyronine, 0.35 μM retinol, 0.3 μM retinol acetate, 2.3 μM DL-a-tocopherol, 2.1 μM DL-a-tocopherol acetate, 3.6 μM linolenic acid, 3.6 μM linoleic acid, 0.125% human transferrin, […], 57.7 nM corticosterone, 49 U/I insulin, 0.4 μM biotin, 10 μM L-carnitine, 83 μM D(+)-galactose, 3.3 μM glutathione, 10 μM ethanolamine, 0.1 mM putrescine; Romijn, H. J., van Huizen, F., Wolters, P. S. (1984) Towards an improved serum-free, chemically defined medium for long-term culturing of cerebral cortex tissue. Neurosci. Behav. Rev., 8:301-334). Acute and prolonged pretreatment of the, cultures was essentially as described previously (Pauwels et al., 1992). Drugs were dissolved, and diluted in 10% or 1% hydroxypropyl-β-cyclodextrin such that the final concentrations of the solvent in the acute and chronic exposures were 0.1% and 0.01% respectively. Compound A as used in the following examples is [(RRSR)+(RRRS)+(SSSR) +(SSRS)]-α-[[[2-(chroman-2-yl)-2-hydroxy-ethyl]amino]methyl]-6-hydroxy-2-chromanmethanol ethanedioate (1:1).
For vitE depletion experiments, primary cultures were set up as above, but on day 1 in culture, the medium was changed to chemically defined CDM-R12 medium with (control) or without DL-a-tocopherol (vitE) and DL-a-tocopherol acetate, in the presence or absence of test coumpound. […] Addition of compounds could rescue the cultures. […] The EC50 for complementation of vitE refers to the concentration of the compound required to restore culture survival to 50% of the survival seen for the culture grown in vitE supplemented medium. Seven concentrations of each compound were tested in triplicate, the number of independent experiments is indicated in the table, and the mean EC50 -value±SD was calculated.
Primary neuronal cultures depend on the presence of the antioxidant vitE in the culture medium for survival in vitro. When vitE depleted medium is used to grow the cultures, survival drops to ±20% of control. Compounds with antioxidative properties are able to complement the lack of vitE, and as such can when added to the culture medium, rescue vitE devoid cultures. Several nebivolol derivatives were tested at 10^-7 M and 10^-6 M in the vitE depletion test on primary neuronal cultures.
When nebivolol derivatives were administered during culture, the cultures could be rescued to a certain extent. 100% vitE complementation refers to the survival of a cell culture which is indifferent from a vitE containing cell culture.
When hydroxynebivolol was administered during culture, the cultures could be rescued. The EC50 refers to the concentration at which the culture is rescued for 50%, as measured by cytoplasmic LDH activity.

β-1 = details: EP-0,334,429; cited from earlier work
[2] = atenolol, propanolol, prazosin, hydralazine and its own (SRRR) enantiomer; EP-0,334,429; cited from earlier work

SMILES	% vitE complementation ([1]; 10^-6 M)	% vitE complementation ([1]; 10^-7 M)	rescue of survival of vitE depleted cultures [1]	β-1 blocking activity (β-1)	potentiation of antihypertensive agents [2]
O[C@H](CNC[C@@H](O)[C@H]1CCc2cc(F)ccc2O1)[C@@H]1CCc2cc(F)ccc2O1 [Compound 1-nebivolol, (SRRR) α,α'-iminobis(methylene)bis[6-fluoro-2-chroman-methanol]]	24 ± 26%	22 ± 20%	able to rescue survival of vitE depleted cultures to a certain extent	potent and selective β-1 blocking agent	
O[C@@H](CNC[C@H](O)[C@H]1CCc2cc(F)ccc2O1)[C@@H]1CCc2cc(F)ccc2O1 [d-nebivolol, (RSSS) α,α'-iminobis(methylene)bis[6-fluoro-2-chroman-methanol]]	19 ± 22%	12 ± 17%	able to rescue survival of vitE depleted cultures to a certain extent	not to be a potent β-1 blocking agent	potentiator for a series of antihypertensive agents

Source: patent publication US5874461A, “Use of Nebivolol as an anti-atherogenic” (priority 1995, dated 1999)
